Earlier results, collected in patent US20110293690A1, “Biodegradable Polymer Encapsulated Microsphere Particulate Film and Method of Making Thereof” (Tyco Healthcare Group LP, priority 2010, published 2011).
Where a name gives a salt, the structure may show the parent alone. Read-outs that look alike come from different tables or passages of the source.

Columns and labels:
[1] = in water, stated in words

Row | aqueous solubility ([1]; hydrochloride) | pKa | aqueous solubility ([1]; listed as free base form of bupivacaine) | Compound
1 | soluble in water | – | – | CCCCN1CCCCC1C(=O)Nc1c(C)cccc1C (stereo not drawn) [salt form of bupivacaine, bupivacaine hydrochloride]
2 | – | about 8.1 | lower aqueous solubility | CCCCN1CCCCC1C(=O)Nc1c(C)cccc1C (stereo not drawn) [Bupivacaine, bupivacaine]
